{"source": "patent US20240325353A1", "about": "“COMPOUND FOR TREATMENT OF COGNITIVE DISORDERS” (Syndesi Therapeutics SA, priority 2021, published 2024)", "system": "brain activity (BOLD signal)", "assay": "pharmaco-MRI (BOLD) neuroimaging study in conscious rats", "assay_type": "in vivo, rat", "conditions": "for median number of positive voxels (positive BOLD volume of activation): 20-30 min post injection", "method": "Test Substance, Reference Substance(s), and Vehicle: the compound of example 1 test substance for dose-dependent change in BOLD signal was provided by Syndesi along with the formula for the vehicle.\nSubjects: Forty-eight male Sprague Dawley rats weighing ca 275-300 g were obtained from Charles River Laboratories (Wilmington, MA, USA). Rat were maintained on a 12:12 hour light:dark cycle with a lights on at 0700 hours and allowed access to food and water ad libitum. All rats were acquired and cared for in accordance with the guidelines published in the Guide for the Care and Use of Laboratory Animals (National Institutes of Health Publications No. 85-23, Revised 1985) and adhered to the National Institutes of Health and the American Association for Laboratory Animal Science guidelines.\nAcclimation: To reduce the stress associated with head restraint, rats were acclimated to the restraining system (head holder and body tube) one week prior to their actual imaging session. The design of the restraining system (Animal Imaging Research, Holden MA, USA) included a padded head support obviating the need for ear bars helping to reduce animal discomfort while minimizing motion artifact. These acclimation sessions were run each day for 4-5 consecutive days. Rats were briefly anesthetized with 2-3% isoflurane while being secured into the head holder. The forepaws were secured with tape. When fully conscious, the imaging system is placed into a black opaque box “mock scanner” for 30 min with a tape-recording of the MRI pulse sequence to simulate the bore of the magnet and the imaging protocol. A significant decline in respiration, heart rate, motor movements, and plasma corticosterone has been measured when the first and last acclimation periods are compared (King et al., 2005). The reduction in autonomic and somatic measures of arousal and stress improve the signal resolution and quality of the images.\nImage Acquisition: Animals were scanned at 300 MHz using a quadrature transmit/receive volume coil built into the rat head holder and restraining system for awake animal imaging (Animal Imaging Research, Holden, MA, USA). The design of the coil provided complete coverage of the brain from olfactory bulbs to brain stem with excellent B1 field homogeneity. Experiments were conducted using a Bruker Biospec 7.0 T/20-cm USR horizontal magnet (Bruker, Billerica, MA, USA) and a 20-G/cm magnetic field gradient insert (ID=12 cm) capable of a 120-μs rise time. At the beginning of each imaging session, a high-resolution anatomical data set was collected using the RARE pulse sequence [22 slice; 1.0 mm; field of view (FOV) 3.0 cm; matrix size 256×256; repetition time (TR) 2.5 s; echo time (TE) 12 ms; NEX 2; 3 min acquisition time]. Functional images were acquired using a multi-slice half-Fourier acquisition single-shot turbo spin echo (HASTE) pulse sequence. Bruker Paravision automatically finds the basic frequency, shims, power requirements for 90° and 180° pulses and sets the receiver gain. A single scanning session acquired 22 slices, 1.0 mm thick, every 6.0 s (TR), using an effective TE of 48 ms, FOV 3.0 cm, matrix size 96×96, NEX 1, and repeated 450 times for a total scanning time of 45 min. The in-plane pixel resolution was 312 μm2.\nData Processing: Data are coregistered to a mean functional image using SPM8's coregistrational code with the following parameters: Quality: 0.97, Smoothing: 0.35 mm, Separation: 0.5 mm. Gaussian smoothing was performed with a FWHM of 0.8 mm. Images were aligned and registered to the 3D rat brain atlas, segmented and labeled with 171 discrete anatomical regions. The alignment process was facilitated by an interactive graphic user interface. The registration process involved translation, rotation and scaling independently and in all three dimensions. Matrices that transformed each subject's anatomy were used to embed each slice within the atlas. […]"}
{"smiles": "O=C1C[C@H](c2cc(F)c(F)c(F)c2)CN1Cn1ncnc1Cl", "note": "[compound of example 1, (4R)-1-[(5-chloro-1H-1,2,4-triazol-1-yl)methyl]-4-(3,4,5-trifluorophenyl)pyrrolidin-2-one]", "values": [{"measurement": "effect on the volume of activation (dose response, inverted U)", "setting": "0.1 mg/kg i.p.", "value": "greatest effect"}, {"measurement": "brain areas significantly activated, low dose versus vehicle", "setting": "0.1 mg/kg versus vehicle, of 171 brain regions", "value": "30/171"}, {"measurement": "effect on the volume of activation (dose response, inverted U)", "setting": "1.0 mg/kg i.p.", "value": "little or no activation"}, {"measurement": "median number of positive voxels (positive BOLD volume of activation)", "setting": "CA1 dorsal, 0.1 mg/kg i.p.", "value": 23}, {"measurement": "median number of positive voxels (positive BOLD volume of activation)", "setting": "CA1 dorsal, 0.3 mg/kg i.p.", "value": 15}, {"measurement": "median number of positive voxels (positive BOLD volume of activation)", "setting": "CA1 dorsal, 1.0 mg/kg i.p.", "value": 0}, {"measurement": "median number of positive voxels (positive BOLD volume of activation)", "setting": "accumbens core, 0.1 mg/kg i.p.", "value": 13}, {"measurement": "median number of positive voxels (positive BOLD volume of activation)", "setting": "accumbens core, 0.3 mg/kg i.p.", "value": 3}, {"measurement": "median number of positive voxels (positive BOLD volume of activation)", "setting": "accumbens core, 1.0 mg/kg i.p.", "value": 0}, {"measurement": "median number of positive voxels (positive BOLD volume of activation)", "setting": "accumbens shell, 0.1 mg/kg i.p.", "value": 8}, {"measurement": "median number of positive voxels (positive BOLD volume of activation)", "setting": "accumbens shell, 0.3 mg/kg i.p.", "value": 10}, {"measurement": "median number of positive voxels (positive BOLD volume of activation)", "setting": "accumbens shell, 1.0 mg/kg i.p.", "value": 2}, {"measurement": "median number of positive voxels (positive BOLD volume of activation)", "setting": "anterior cingulate area, 0.1 mg/kg i.p.", "value": 67}, {"measurement": "median number of positive voxels (positive BOLD volume of activation)", "setting": "anterior cingulate area, 0.3 mg/kg i.p.", "value": 37}, {"measurement": "median number of positive voxels (positive BOLD volume of activation)", "setting": "anterior cingulate area, 1.0 mg/kg i.p.", "value": 2}, {"measurement": "median number of positive voxels (positive BOLD volume of activation)", "setting": "anterior pretectal nucleus, 0.1 mg/kg i.p.", "value": 7}, {"measurement": "median number of positive voxels (positive BOLD volume of activation)", "setting": "anterior pretectal nucleus, 0.3 mg/kg i.p.", "value": 5}, {"measurement": "median number of positive voxels (positive BOLD volume of activation)", "setting": "anterior pretectal nucleus, 1.0 mg/kg i.p.", "value": 0}, {"measurement": "median number of positive voxels (positive BOLD volume of activation)", "setting": "central amygdaloid nucleus, 0.1 mg/kg i.p.", "value": 8}, {"measurement": "median number of positive voxels (positive BOLD volume of activation)", "setting": "central amygdaloid nucleus, 0.3 mg/kg i.p.", "value": 4}, {"measurement": "median number of positive voxels (positive BOLD volume of activation)", "setting": "central amygdaloid nucleus, 1.0 mg/kg i.p.", "value": 0}, {"measurement": "median number of positive voxels (positive BOLD volume of activation)", "setting": "dentate gyrus dorsal, 0.1 mg/kg i.p.", "value": 17}, {"measurement": "median number of positive voxels (positive BOLD volume of activation)", "setting": "dentate gyrus dorsal, 0.3 mg/kg i.p.", "value": 9}, {"measurement": "median number of positive voxels (positive BOLD volume of activation)", "setting": "dentate gyrus dorsal, 1.0 mg/kg i.p.", "value": 0}, {"measurement": "median number of positive voxels (positive BOLD volume of activation)", "setting": "dentate gyrus ventral, 0.1 mg/kg i.p.", "value": 14}, {"measurement": "median number of positive voxels (positive BOLD volume of activation)", "setting": "dentate gyrus ventral, 0.3 mg/kg i.p.", "value": 14}, {"measurement": "median number of positive voxels (positive BOLD volume of activation)", "setting": "dentate gyrus ventral, 1.0 mg/kg i.p.", "value": 0}, {"measurement": "median number of positive voxels (positive BOLD volume of activation)", "setting": "dorsal medial striatum, 0.1 mg/kg i.p.", "value": 39}, {"measurement": "median number of positive voxels (positive BOLD volume of activation)", "setting": "dorsal medial striatum, 0.3 mg/kg i.p.", "value": 30}, {"measurement": "median number of positive voxels (positive BOLD volume of activation)", "setting": "dorsal medial striatum, 1.0 mg/kg i.p.", "value": 0}, {"measurement": "median number of positive voxels (positive BOLD volume of activation)", "setting": "dorsal raphe, 0.1 mg/kg i.p.", "value": 1}, {"measurement": "median number of positive voxels (positive BOLD volume of activation)", "setting": "dorsal raphe, 0.3 mg/kg i.p.", "value": 0}, {"measurement": "median number of positive voxels (positive BOLD volume of activation)", "setting": "dorsal raphe, 1.0 mg/kg i.p.", "value": 0}, {"measurement": "median number of positive voxels (positive BOLD volume of activation)", "setting": "endopiriform nucleus, 0.1 mg/kg i.p.", "value": 2}, {"measurement": "median number of positive voxels (positive BOLD volume of activation)", "setting": "endopiriform nucleus, 0.3 mg/kg i.p.", "value": 0}, {"measurement": "median number of positive voxels (positive BOLD volume of activation)", "setting": "endopiriform nucleus, 1.0 mg/kg i.p.", "value": 0}, {"measurement": "median number of positive voxels (positive BOLD volume of activation)", "setting": "granular cell layer, 0.1 mg/kg i.p.", "value": 70}, {"measurement": "median number of positive voxels (positive BOLD volume of activation)", "setting": "granular cell layer, 0.3 mg/kg i.p.", "value": 52}, {"measurement": "median number of positive voxels (positive BOLD volume of activation)", "setting": "granular cell layer, 1.0 mg/kg i.p.", "value": 9}, {"measurement": "median number of positive voxels (positive BOLD volume of activation)", "setting": "habenula nucleus, 0.1 mg/kg i.p.", "value": 11}, {"measurement": "median number of positive voxels (positive BOLD volume of activation)", "setting": "habenula nucleus, 0.3 mg/kg i.p.", "value": 10}, {"measurement": "median number of positive voxels (positive BOLD volume of activation)", "setting": "habenula nucleus, 1.0 mg/kg i.p.", "value": 0}, {"measurement": "median number of positive voxels (positive BOLD volume of activation)", "setting": "infralimbic ctx, 0.1 mg/kg i.p.", "value": 19}, {"measurement": "median number of positive voxels (positive BOLD volume of activation)", "setting": "infralimbic ctx, 0.3 mg/kg i.p.", "value": 21}, {"measurement": "median number of positive voxels (positive BOLD volume of activation)", "setting": "infralimbic ctx, 1.0 mg/kg i.p.", "value": 4}, {"measurement": "median number of positive voxels (positive BOLD volume of activation)", "setting": "lateral amygdaloid nucleus, 0.1 mg/kg i.p.", "value": 5}, {"measurement": "median number of positive voxels (positive BOLD volume of activation)", "setting": "lateral hypothalamus, 0.1 mg/kg i.p.", "value": 56}, {"measurement": "median number of positive voxels (positive BOLD volume of activation)", "setting": "lateral hypothalamus, 0.3 mg/kg i.p.", "value": 59}, {"measurement": "median number of positive voxels (positive BOLD volume of activation)", "setting": "lateral hypothalamus, 1.0 mg/kg i.p.", "value": 2}, {"measurement": "median number of positive voxels (positive BOLD volume of activation)", "setting": "lateral orbital ctx, 0.1 mg/kg i.p.", "value": 29}, {"measurement": "median number of positive voxels (positive BOLD volume of activation)", "setting": "lateral orbital ctx, 0.3 mg/kg i.p.", "value": 14}, {"measurement": "median number of positive voxels (positive BOLD volume of activation)", "setting": "lateral orbital ctx, 1.0 mg/kg i.p.", "value": 1}]}
